Results as given in patent US11517530B2, “Therapeutic agents specifically delivered by exosomes for cancer treatment” (The Board of Trustees of the Leland Stanford Junior …, priority 2017, dated 2022).

Key:
[1] = system: 4T1 murine mammary cells that endogenously generated HChrR6 enzyme; conditions: initial studies; cited from earlier work
[2] = system: orthotopically implanted BT474 tumors; assay: In vivo assay for EXO-DEPT EV functionality, tumor growth; design: species or system nu/nu mice; conditions: 2×10^9 EVs i.p., CNOB 3.3 mg/kg i.v.
Procedure: In vivo assays for EXO-DEPT EV functionality. All animal experiments were performed in accordance with protocols approved by Stanford University Institutional Animal Care and Use Committee. Number of mice required for this study was determined by power analysis using the G*Power 3.1.5 power calculator (Universitat Dusseldorf) for F-tests of one-way ANOVA by setting Type I error at 5% (alpha=0.05); power was kept at 0.8, and the number of treatment groups=5. The effect size f was calculated as 0.707. This number was then used to determine total sample size of 30 with 6 mice per treatment group (n=6). […] Tumor size was monitored by caliper at two-day intervals, and tumor volume was calculated using the formula: tumor width^2×its length/2. […]
The effect of administration of EXO-DEPT EVs along with CNOB was tested on orthotopically implanted BT474 tumors in athymic mice; the treatment schedule (FIG. 4E) was guided by earlier PK/PD studies. […] After measurable implanted tumors in mice were detected, they were randomly allocated into 5 treatment groups (n=6): untreated; loaded EVs only; CNOB only; undirected loaded EVs+CNOB; and EXO-DEPT-EVs+CNOB. […]
Each mouse was measured at nine time periods, days 0,3,7,11,16,19,24,28,32. A linear regression of tumor burden versus day was fit for each mouse, by ordinary least squares, and its slope calculated. s[i]=slope of mouse[i]'s linear regression

[3] = earlier PK/PD studies; cited from earlier work

| Structure (SMILES) | survival of mice [1] | tumor growth ([2]; versus controls) | mean slope of linear regression of tumor burden versus day ([2]; days 0-32) | half-life in plasma [3] [h] |
| --- | --- | --- | --- | --- |
| O=c1c(Cl)c2oc3cc([N+](=O)[O-])ccc3nc-2c2ccccc12 [CNOB, 6-chloro-9-nitro-5-oxo-5H-benzo-(a)-phenoxazine] | marked improvement | no significant difference | 7.24 | – |
| Nc1ccc2nc3c4ccccc4c(=O)c(Cl)c-3oc2c1 [MCHB, 9-p amino-6-chloro-5H-benzo′a″phenoxazine-5-one] | – | – | – | 8.3 |
